Where two headings read alike, the source gives them in different places.
Experiments:
[1] = system: Reversed Passive Arthus reaction; test: Reversed Passive Arthus reaction; type: in vivo, rat (Sprague-Dawley); details: oral, 6.25 mg/kg, one hour before antigen
Procedure: Under ether anesthesia, the hair of the back of Sprague-Dawley male rats (7-week old, about 250 g body weight) was cut, and 0.5 ml of a 5% solution of gum arabia of a test compound relative to 100 g of the body weight of the animals was orally administered (one hour before injection of antigen). An antigen, egg albumin dissolved in physiological saline (5 mg/kg) was administered through the tail vein. Immediately, 0.1 ml each of a rabbit anti-egg albumin serum (containing 6 mg protein antibody/ml) was administered intracutaneously at one spot each of left- and right-hand sides of the back of rats. Three hours later, 1 ml of physiological saline containing 1% of Evans blue was given intravenously, and 30 minutes later, the skin of the animals was excised, and the area (mm^2) of blue spots was measured. The results were compared with those of the control group, and the inhibitory ratio was determined.

PAF-induced hypotension = test: Inhibitory action on PAF-induced hypotension in rats; type: in vivo, rat (Sprague-Dawley); details: Rattus norvegicus, read-out: Inhibitory Rate (Lowering of Blood Pressure); for inhibition in vivo at 0.01 mg/kg / inhibition in vivo at 0.03 mg/kg / inhibition in vivo at 0.1 mg/kg: iv; for inhibition in vivo at 1 mg/kg / inhibition in vivo at 3 mg/kg / inhibition in vivo at 10 mg/kg: oral
Method in brief: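 Male Sprague-Dawley rats of about 250 g had cannulas placed in the femoral artery, for blood pressure recording via a pressure transducer, and in the femoral vein, for drug dosing. The hypotensive response to intravenous PAF (1 μg/kg) was measured first. Test samples were then given intravenously or orally, and PAF was given again. Percent inhibition compares the PAF-induced pressure drop (Δ mmHg) after treatment with the drop before treatment.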

[2] = system: platelet aggregation (PAF); test: Inhibitory action on PAF-induced rabbit platelet aggregation; type: cell-based; details: Oryctolagus cuniculus, read-out: inhibitory percentage (platelet aggregation)
Method in brief: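 Male rabbit citrated PRP, adjusted with PPP to about 500,000 platelets/μl, was stirred 2 min at 37 °C, then with test sample for 2 min before PAF addition. Aggregation was followed by aggregometry as maximum percent light transmission.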

For `CCC[n+]1cc(Br)cc(C(=O)N(CCOC(=O)NCCOC(=O)Nc2cccc3ccccc23)c2ccccc2)c1` [Production Example 10, 5-bromo-3-[N-[2-[2-(1-naphthylcarbamoyloxy)ethyl]carbamoyloxy]ethyl-N-phenyl]carbamoyl-1-propylpyridinium chloride], the preventive ratio [1] was 57%, the inhibition in vivo at 0.01 mg/kg (PAF-induced hypotension; 1 hr.) was 65% and the inhibition in vivo at 0.01 mg/kg (PAF-induced hypotension; 2 hr.) was 60%. It also gave an inhibition in vivo at 0.01 mg/kg (PAF-induced hypotension; 4 hr.) of 53%, an inhibition in vivo at 0.01 mg/kg (PAF-induced hypotension; 6 hr.) of 47% and an inhibition in vivo at 0.01 mg/kg (PAF-induced hypotension; 8 hr.) of 36%. The inhibition in vivo at 0.03 mg/kg (PAF-induced hypotension; 1 hr.) was 97%, the inhibition in vivo at 0.03 mg/kg (PAF-induced hypotension; 2 hr.) was 84% and the inhibition in vivo at 0.03 mg/kg (PAF-induced hypotension; 4 hr.) was 65%. For the same compound, the inhibition in vivo at 0.03 mg/kg (PAF-induced hypotension; 6 hr.) was 55%, the inhibition in vivo at 0.03 mg/kg (PAF-induced hypotension; 8 hr.) was 47% and the inhibition in vivo at 0.1 mg/kg (PAF-induced hypotension; 1 hr.) was 100%. For the same compound, the inhibition in vivo at 0.1 mg/kg (PAF-induced hypotension; 2 hr.) was 94%, the inhibition in vivo at 0.1 mg/kg (PAF-induced hypotension; 4 hr.) was 89% and the inhibition in vivo at 0.1 mg/kg (PAF-induced hypotension; 6 hr.) was 81%. It also gave an inhibition in vivo at 0.1 mg/kg (PAF-induced hypotension; 8 hr.) of 76%, an inhibition in vivo at 0.01 mg/kg (PAF-induced hypotension; 5 min, i.v., 5 min.) of 79% and an inhibition in vivo at 0.03 mg/kg (PAF-induced hypotension; 5 min, i.v., 5 min.) of 100%. The inhibition in vivo at 0.1 mg/kg (PAF-induced hypotension; 5 min, i.v., 5 min.) was 100%, the inhibition in vivo at 1 mg/kg (PAF-induced hypotension; 1 hr.) was 33% and the inhibition in vivo at 1 mg/kg (PAF-induced hypotension; 2 hr.) was 51%. The inhibition in vivo at 1 mg/kg (PAF-induced hypotension; 4 hr.) was 56%, the inhibition in vivo at 1 mg/kg (PAF-induced hypotension; 6 hr.) was 59% and the inhibition in vivo at 1 mg/kg (PAF-induced hypotension; 8 hr.) was 47%. The inhibition in vivo at 3 mg/kg (PAF-induced hypotension; 1 hr.) was 79%, the inhibition in vivo at 3 mg/kg (PAF-induced hypotension; 2 hr.) was 83% and the inhibition in vivo at 3 mg/kg (PAF-induced hypotension; 4 hr.) was 87%. The inhibition in vivo at 3 mg/kg (PAF-induced hypotension; 6 hr.) was 83%, the inhibition in vivo at 3 mg/kg (PAF-induced hypotension; 8 hr.) was 81% and the inhibition in vivo at 10 mg/kg (PAF-induced hypotension; 1 hr.) was 96%. The inhibition in vivo at 10 mg/kg (PAF-induced hypotension; 2 hr.) was 96%, the inhibition in vivo at 10 mg/kg (PAF-induced hypotension; 4 hr.) was 96% and the inhibition in vivo at 10 mg/kg (PAF-induced hypotension; 6 hr.) was 93%. For the same compound, the inhibition in vivo at 10 mg/kg (PAF-induced hypotension; 8 hr.) was 90%, the inhibition at 3 µM ([2]; 3 × 10^-6 M) was 100% and the inhibition at 0.3 µM ([2]; 3 × 10^-7 M) was 91%.

— patent publication US4962113A, “Pyridinium derivatives, their production and use” (Takeda Chemical Industries, Ltd, priority 1987, dated 1990)
